Here are results for one molecule from patent publication US9233061B2 (AMOREPACIFIC CORPORATION, priority 2011, dated 2016).

The data set is described as follows: Precipitation of caffeine at low temperature (4° C.). Type of data set: physicochemical. The conditions noted are these: 3 days in a refrigerator (4° C.).

On to `NC(=O)c1cccnc1` [niacinamide, Niacinamide], for which the “Amount of niacinamide necessary for inhibiting precipitation” value was 0.5-1 time based on caffeine (caffeine content 1-3%), 1-1.5 times based on caffeine (caffeine content 3-5%) and 1-2 times based on caffeine (caffeine content 5-10%).
